In the case of `O=C(N[C@@H]1C(=O)N[C@@H]1CO)OCc1ccccc1`, the melting point (as a rule, the temperature, or range, at which the solid turns liquid) fell in the range of 98 to 100 °C. With `O=[N+]([O-])c1cccc(C(F)(F)F)c1NCC(O)CO` (centres undefined) the figure was 117 °C.

`O=C(O)C1CCc2c(oc3ccc([N+](=O)[O-])cc23)C1` (centres undefined) yielded a melting point of 229 to 232 °C. Then `Cc1cccc(-c2ccccc2)c1C(=O)c1sc(Nc2ccc(N3CCOCC3)cc2)nc1N`, with 125 to 135 °C. `CS(=O)(=O)c1ccc(C(CC2CCC(=O)C2)C(=O)O)cc1Cl` (centres undefined) registered a melting point of 164 to 167 °C.

`COc1ccc(N(C)c2nccc(-c3cccnc3)n2)cc1` displayed a melting point of 88 to 90 °C.

Compound `C[C@@H](n1cnc2cc(N3CCOCC3)ccc2c1=O)[C@](O)(Cn1cncn1)c1ccc(F)cc1F` registered a melting point of 196 to 197 °C.

Compound `O=C1NC2C3C=CC(C3)C12` (centres undefined) gave a melting point of 94 to 97 °C. Compound `COCC(=O)Nc1cc(NC(=O)COC)cc(C(=O)OC)c1` registered a melting point of 140 to 141 °C.

`CCCCCCCCCCCCCCCCCCOc1cccc(C(=O)OC)c1O` came in with a melting point of 57 to 60 °C. Then `O=C(O)Cc1ccc2c(c1)[nH]c1ccccc12`, with 150 to 152 °C. `CC(=O)Oc1c(C)cc(C(=O)c2ccc(C(=O)c3cc(C)c(OC(C)=O)c(C)c3)cc2)cc1C` came in with a melting point of 255 to 256 °C. Then `CC(=O)C1(C)COC(C)(C)OC1`, with 48 to 50 °C; and `Clc1ccc2c3c(cccc13)-c1ccccc1-2`, with 95 to 98 °C. In turn, `CC(=O)Nc1nc(/C=C/C(=O)N2CCN(C(=O)c3cc(C(F)(F)F)cc(C(F)(F)F)c3)[C@H](Cc3ccc(C)c(C)c3)C2)cs1` came in with a melting point of 145 to 149 °C. In turn, `COC(=O)c1ncoc1-c1cc(OC)c(OC)c(OC)c1` displayed a melting point of 175 to 176 °C. As to `CC(C)(C)NC(=O)c1cc(F)ccc1N`, the melting point was in the range of 77 to 78 °C. With `O=C(O)CCC(=O)c1ccc(-c2ccc(Cl)c(Cl)c2)cc1`, the melting point fell in the range of 154 to 156 °C. `NC1=NCC(NC=O)(N[C@@H]2CC=C(CO)C2)C(Cl)=N1` (some centres undefined) gave a melting point of 148 to 150 °C. `COC(=O)C(O)C(NC(=O)OCc1ccccc1)C(=O)OC` (centres undefined) showed a melting point of 129 °C. With `O=C(CCC1CCCCCCCCCCC1=O)C1=C(O)CSC1=O` (centres undefined) the figure was 93 to 95 °C; with `O=C1N(Cc2ccccn2)c2cccc(-c3ccoc3)c2C12COc1cc3c(cc12)CCO3` (centres undefined), 195 to 197 °C; with `CN1CCC(NC(=O)C2c3ccccc3NC(=O)c3ccccc32)CC1` (centres undefined), 230 to 231 °C. `COc1ccc(C(=O)N2CCN(c3ccc(N)c(CCC(=O)O)c3)CC2)cc1OC` displayed a melting point of 98 to 101 °C.

Take `OC(CN1CCNC1=S)c1ccc(Cl)cc1` (centres undefined): the melting point was 153 °C. Compound `CCOC(=O)CN1C(=O)[C@@H](N)[C@H](c2ccccc2)Sc2ccccc21` had a melting point of 176 to 178 °C.

The compound `CCCS(=O)(=O)NC(=O)CCc1cc(OC(C)C)nn1Cc1ccc(Cl)cc1Cl` returned a melting point of 124 to 126 °C. Compound `COc1nc(NC(=O)Nc2ccccc2OC)nc(N(CCC(=O)O)Cc2ccc(Cl)c(Cl)c2)n1` registered a melting point of 208 to 210 °C. The compound `CC(C)c1csc(/C=C/c2cccc(OCCC(C)(C)C(=O)O)c2)n1` came in with a melting point of 112 to 113 °C. For `COCC1CN(c2ccc3c(c2)CCC(CCC(F)(F)F)O3)C(=O)O1` (centres undefined), the melting point lay within 110 to 111 °C. Then `COC(=O)C(C#N)=Cc1cc(-n2c(=O)cc(C(F)(F)F)n(C)c2=O)ccc1Cl`, with 187 to 188 °C; and `Cc1nc2ccc([N+](=O)[O-])cn2c(=O)c1CCCl`, with 170 °C; and `O=C(CCCc1cccnc1)N1CCC(CC(c2ccc(F)cc2)c2ccc(F)cc2)CC1`, with 108 to 110 °C. `c1ccc(-c2nnc3cc(C45CCC(CC4)C5)c(OCc4ccccn4)nn23)cc1` yielded a melting point of 166 to 168 °C. `C=CCOc1cc2c(c(Cl)c1Cl)C(=O)C(C)(c1ccccc1)C2` (centres undefined): the melting point worked out at 105 °C. With `O=C(c1c(F)cccc1F)N1COCN(c2ccc(SC(F)(C(F)(F)F)C(F)(F)F)cc2F)C1=O` the figure was 85 to 86 °C; with `CN1C[C@]2(C)CC[C@](NCC(=O)N3C[C@@H](F)C[C@H]3C#N)(C1)C2(C)C`, 122 to 126 °C. In turn, `COc1cccc(C2(c3cccc(OC)c3)CC2C=CC(=O)NC(C)CCCc2ccncc2)c1` (single isomer, unassigned) gave a melting point of 104 to 106 °C. The compound `Cc1ncnc(N)c1C=O` registered a melting point of 158 to 160 °C. `O=C(Cl)c1cc2ccccc2oc1=O` came in with a melting point of 138 to 141 °C. Compound `COc1ccc2cccc(C=CN3C(=O)c4ccccc4C3=O)c2c1` showed a melting point of 146 °C.

On to `CCC(CCCN)Nc1cc(OC)c(OC)c2c(C)ccnc12` (centres undefined), for which the melting point is 136 to 137 °C.

As to `CCSc1cc(C)nc(SCC)c1NC(=O)CCCSc1nc2ccccc2o1`, the melting point fell in the range of 123 to 125 °C. Take `CCOP(=O)(OCC)c1ccc(NC(=O)CCc2oc(-c3ccccc3)nc2-c2ccc(Cl)cc2)cc1`: the melting point fell in the range of 139 to 140 °C. Then `O=C(O)COc1cccc2c(CNS(=O)(=O)Cc3ccccc3)coc12`, with 191 to 192 °C; and `COc1ccc(-c2cc(=O)c3c(OCC4=COC(C)(C)O4)cc(OCC4=COC(C)(C)O4)cc3o2)cc1O`, with 160 °C; and `COc1ccc(Cc2cc3cccc(-c4cccc(C(=O)O)c4)c3o2)cc1OC`, with 122 to 123 °C. In turn, `Cc1cccc(C(=O)Nc2c[nH]nc2C(=O)NCCC#N)n1` displayed a melting point of 225 to 227 °C. Compound `O=C(O)CCc1cnoc1-c1ccc2c(c1)OCO2` came in with a melting point of 150 to 151 °C. Compound `CCc1cc(C(=O)O)c(S(N)(=O)=O)o1` gave a melting point of 186 °C. The compound `CC(C(N)=O)n1nc(-c2cc(C(C)(C)C)c(O)c(C(C)(C)C)c2)c2cccnc21` (centres undefined) yielded a melting point of 192 to 194 °C. In the case of `C#CCOc1c(Cl)cc(Cl)cc1C(=O)O`, the melting point lay in the range of 163 to 164 °C. `N#Cc1c(N2CCCCC2)c(C(=O)OCCO)c2ccccn2c1=O` had a melting point of 140 to 141 °C. With `CONC(=O)c1ccccc1SCc1ccccc1`, the melting point is 100 to 105 °C. As to `CC(C(=O)O)c1ccc2c(c1)C(=O)CC(C(C)(C)C)O2` (centres undefined), the melting point fell in the range of 117 to 118 °C. In turn, `NC(=O)c1ccc(-c2cccc3cc(Cc4cc(F)cc(Cl)c4)sc23)cc1` had a melting point of 202 to 203 °C. In the case of `COc1ccccc1C(=O)N1CCCC2=C1CCc1cc(Cl)ccc12`, the melting point turned out to be 139 °C.

Turning to `CC(C)[C@H](NC(=O)[C@@H]1CCCN1C(=O)OCc1ccccc1)C(=O)O`, the melting point was 132 to 134 °C. As to `Cc1oc(-c2ccccc2)nc1COc1ccc(COc2ccc(O)cc2CC#N)cc1`, the melting point lay in the range of 185 to 186 °C. Then `O=C(O)CC1c2ccccc2CCc2cc(Cl)ccc21` (centres undefined), with 142 to 146 °C; and `CCCc1c(SCCCOc2ccc(C(C)=O)c(OCCCC(=O)OCC)c2CCC)ccc(C(C)=O)c1O`, with 65 to 66 °C. Then `COC(=O)C1=Cc2cc(-c3ccc(OC(F)(F)F)cc3)ccc2S(=O)(=O)CC1`, with 142 to 143 °C.

`ClCn1nnc2ccccc21` had a melting point of 136 °C.

The compound `COC(C)=C(C(=O)OC(c1ccccc1)c1ccccc1)N1C(=O)C(NC(=O)C(NC(=O)OC(C)(C)C)c2ccccc2)C1SS(=O)(=O)c1ccc(C)cc1` (centres undefined) returned a melting point of 204 to 206 °C. On to `CCCN1CCC(c2c(O)cc(O)c3c(=O)cc(-c4ccccc4Cl)oc23)C1CO` (centres undefined), for which the melting point was in the range of 94 to 96 °C. Compound `CNC(=O)[C@@H]1C=CCN1S(=O)(=O)c1ccc(Cl)c(CBr)c1Cl` gave a melting point of 66 °C. In turn, `O=C(O)CN(CCN(CC(=O)O)C(Cc1ccccc1)C(=O)O)CC(=O)O` (centres undefined) had a melting point of 120 °C. For the compound `CCCCn1ncc2cc(/C=C/c3ccc(O)cc3)ccc2c1=O`, the melting point was in the range of 225 to 230 °C. In turn, `COc1ccc2c(c1)CN(C(=O)CN1CCOCC1)N=C2Cc1c(Cl)cncc1Cl` yielded a melting point of 180 to 182 °C. Then `C=CCc1c[nH]c2c([N+](=O)[O-])cccc2c1=O`, with 242 °C. In the case of `CC(C)OC(=O)C(=O)Nc1cc(Cl)ccc1O`, the melting point was more than 300 °C. Take `Cc1ccc2c(c1)Nc1ccccc1N=C2N1CCN[C@@H](CCc2ccccc2)C1`: the melting point fell in the range of 64 to 80 °C. Turning to `CN1CC(CCCN2CCN(c3ncccn3)CC2)OC1=O` (centres undefined), the melting point fell in the range of 79 to 89 °C. `Cc1oc(-c2ccccc2)nc1COc1ccc(CSc2nc(CCC(=O)O)n[nH]2)cc1` yielded a melting point of 170 to 171 °C. With `Fc1cccc(F)c1-c1nc(/C=C/c2ccc(C3CCCCC3)cc2)no1` the figure was 86 to 87 °C; with `CCSCc1ccc(C(=O)c2ccc(Cl)cc2)cc1`, 33 to 34 °C. `Cn1c(=O)cc(CCCl)c2cc(Cl)ccc21` registered a melting point of 120 to 122 °C. With `COC(=O)C(=O)NC1CC(C)(C)N(OC2CCCCC2)C(C)(C)C1` the figure was 124 to 126 °C; with `COC(COc1cccc2c(OCC(OC)OC)cccc12)OC`, 117 °C; with `O=C1[C@H](O)[C@@H](O)C(=O)N1Cc1ccccc1`, 100 °C. With `Cc1oc(-c2ccc(C(F)(F)F)cc2)nc1-c1ccc(Br)cc1` the figure was 82.8 °C.

For `O=C(OCc1ccccc1)N1CCC2(CC1)CC(=O)N(OC[N+](=O)[O-])C2=O`, the melting point lay in the range of 137 to 139 °C.

Compound `CCOC(=O)CCCCCOc1c(/C=C/C(=O)CCc2ccccc2)occc1=O` returned a melting point of 38.5 to 40 °C. With `CCN(CC)CCNc1cccc2c1C(=O)c1cccc(NCCN(CC)CC)c1C2=O` the figure was 158 to 160 °C; with `CCC(=O)Nc1c(C(=O)c2ncccc2CO)[nH]c2cc(Cl)ccc12`, 198 to 199 °C; with `CCN(CC)CCNc1ccc(NCCN(CC)CC)c2c1C(=O)c1c(O)ccc(O)c1C2=O`, 202 to 204 °C. Compound `CC(C)(C)OC(=O)c1ccc(NC2CCc3cc4nc(COC(=O)C(C)(C)C)[nH]c(=O)c4cc32)cc1` (racemic) showed a melting point of 231 °C. As for `CNC(=O)ON=C1SC(C)C(=O)NC1(C)C` (centres undefined), the melting point lay in the range of 190 to 191 °C. For `CCOC(=O)c1c(CC)nn2c(-c3ccccc3)ccnc12`, the melting point was in the range of 83 to 84 °C.

The record behind these values is a melting point compilation (Tetko et al.; mined from patent text by program, amines drawn as free bases though some values may be those of a salt).
